We go through 2 compounds from patent US10543196B2, “Oral dosage forms of bendamustine” (priority 2008, dated 2020).

Series [1] is described as follows: Solubility of bendamustine hydrochloride. Format: physicochemical. From the text:
Therefore it is not surprising that the oral bendamustine compositions, as investigated by Preiss et al. and Weber gave rise to relatively poor bioavailability results and a large inter-individual variability.

The conditions of series [2]: patients, oral doses of 250-350 mg, cited from earlier work.
For series [3] the following is noted: B6D2F1-mice; cited from earlier work.
Series [4] in a line: Stability of an aqueous solution of bendamustine versus pH. In kind it is physicochemical. The settings on record: pH>5.

Counter-ions that a name gives are not always drawn. Where only a bound is given, the exact number is not on record here.

Regarding `Cn1c(CCCC(=O)O)nc2cc(N(CCCl)CCCl)ccc21` [bendamustine hydrochloride], in series [1], the “Solubility in a range of organic solvents” value is listed as “slightly or very slightly soluble”; the “Solubility in ethanol and methanol” value was “good solubility”. Besides, the Solubility in water entry in series [1] (pH of 2.0) is recorded as “sparingly soluble”. Besides, the “Time at which maximal plasma levels were detectable after oral administration” value in series [2] (capsules of 25 mg) is at most 1 h. The “Bioavailability (absorption from the gastro-intestinal tract)” value in series [3] is recorded as “about 40%”.
Consider `Cn1c(CCCC(=O)O)nc2cc(N(CCCl)CCCl)ccc21` [bendamustine, 4-[5-[bis(2-chloroethyl)amino]-1-methylbenzimidazo-2-yl]butanoic acid], for which, in series [4], the “Hydrolytic decomposition in aqueous solution” value is “the decomposition proceeds rapidly”. Moreover, the “Oral bioavailability, range” value in series [2] (capsules) is on record as 25-94%.
